From patent US9067937B2 (priority 2012, dated 2015)
Where a name gives a salt, the structure may show the parent alone. Read-outs that look alike come from different tables or passages of the source.

How the values were obtained:
MELK = MELK (Homo sapiens, UniProt Q14680); experiment: Kinase assay (IMAP fluorescence polarization, FITC-labeled histone H3 peptide); format: biochemical; settings: 50 micro-M ATP
How it was run: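 Kinase (0.8 ng/μL) reacted with 100 nM FITC-histone H3 peptide and 50 μM ATP in 20 mM HEPES, 0.3 mM MgCl2, 2 mM DTT, 0.01% Tween-20, pH 7.4, for 1 hour at room temperature. Phosphorylation read by IMAP fluorescence polarization after adding binding solution; IC50 from four-parameter fit.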

22Rv1 cells = experiment: Cell-based assay, anti-proliferative activity (Cell Counting Kit-8, 72 hours); set-up: species or system human; settings: read-out: IC50 (μM) (22Rvl)
How it was run: (§1)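 Cells seeded at 2,000–3,000 cells/well and exposed to candidate MELK inhibitors for 72 hours; growth measured with Cell Counting Kit-8. IC50 values calculated from the growth read-out.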

A549 cells = experiment: as above; set-up: species or system human; settings: read-out: IC50 (μM) (A549)
How it was run: as §1

DU4475 cells = experiment: as above; set-up: species or system human; settings: read-out: IC50 (μM) (DU4475)
How it was run: as §1

T47D cells = experiment: as above; set-up: species or system human; settings: read-out: IC50 (μM) (T47D)
How it was run: as §1

HT1197 cells = experiment: Cell-based assay, anti-proliferative activity, MELK-negative control (Cell Counting Kit-8, 72 hours); set-up: species or system human; settings: read-out: IC50 (μM) (HTll97)
Description: 100 micro-L of cell suspension was seeded onto 96-well microtiter plate (ViewPlate-96FTC, PerkinElmer). The initial cell concentration of 22Rv1, T47D, A549, DU4475, and HT1197 were 3,000 cells/well, 2,000 cells/well and 2,500 cells/well, respectively. Cellular growth was determined using Cell Counting Kit-8 (DOJINDO) at 72 hours after the exposure of the candidate inhibitors. […] Accurate IC50 values were calculated as described previously.

Chain of MELK (Q14680 whole entry, looked up): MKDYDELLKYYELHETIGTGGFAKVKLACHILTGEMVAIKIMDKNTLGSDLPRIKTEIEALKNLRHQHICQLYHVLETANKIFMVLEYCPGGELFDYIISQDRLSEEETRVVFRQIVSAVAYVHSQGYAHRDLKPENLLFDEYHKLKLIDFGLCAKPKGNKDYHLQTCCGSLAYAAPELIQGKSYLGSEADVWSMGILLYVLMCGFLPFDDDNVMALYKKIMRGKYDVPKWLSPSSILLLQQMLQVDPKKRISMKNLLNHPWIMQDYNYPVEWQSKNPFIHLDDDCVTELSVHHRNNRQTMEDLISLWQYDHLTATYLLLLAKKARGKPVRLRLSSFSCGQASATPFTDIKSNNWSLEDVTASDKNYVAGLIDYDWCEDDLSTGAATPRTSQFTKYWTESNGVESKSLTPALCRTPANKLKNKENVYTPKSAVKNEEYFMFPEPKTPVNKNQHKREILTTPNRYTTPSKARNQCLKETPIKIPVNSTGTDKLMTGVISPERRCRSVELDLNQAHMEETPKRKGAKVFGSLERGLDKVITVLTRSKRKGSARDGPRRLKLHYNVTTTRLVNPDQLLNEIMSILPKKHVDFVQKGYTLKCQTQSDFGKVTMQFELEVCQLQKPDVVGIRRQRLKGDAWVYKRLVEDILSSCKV

Compound	IC50 (MELK)	IC50 (22Rv1 cells; Homo sapiens, 22Rv1, 72 h)	IC50 (A549 cells; Homo sapiens, A549, 72 h)	IC50 (DU4475 cells; Homo sapiens, DU-4475, 72 h)	IC50 (T47D cells; Homo sapiens, T47D, 72 h)	IC50 (HT1197 cells; Homo sapiens, HT1197, 72 h)	IC50 (22Rv1 cells; 22Rv1 cells, 72 hours)	IC50 (A549 cells; A549 cells, 72 hours)	IC50 (DU4475 cells; DU4475 cells, 72 hours)	IC50 (T47D cells; T47D cells, 72 hours)	IC50 (HT1197 cells; HT1197 cells (MELK-negative control), 72 hours)
CN(C)C[C@H]1CC[C@H](Nc2c(C(=O)CO)cnc3ccc(-c4cc(Cl)c(O)c(Cl)c4)nc23)CC1 [Example 44, 1-[6-(3,5-Dichloro-4-hydroxyphenyl)-4-{trans-4-[(dimethylamino)methyl]cyclohexyl-amino}-1,5-naphthyridin-3-yl]-2-hydroxyethanone dihydrochloride]	0.0003 µM	0.006 µM	0.0067 µM	0.0017 µM	0.0029 µM	0.2 µM					
CC(=O)c1cnc2ccc(-c3cc(Cl)c(O)c(Cl)c3)nc2c1N[C@H]1CC[C@H](CN2CCNCC2)CC1 [Example 70, 1-{6-(3,5-Dichloro-4-hydroxyphenyl)-4-[trans-4-(piperazin-1-ylmethyl)cyclohexylamino]-1,5-naphthyridin-3-yl}ethanone trihydrochloride]	0.0006 µM	0.031 µM	0.084 µM	0.011 µM	0.021 µM	3.9 µM					
CN(C)[C@H]1CC[C@H](Nc2c(C(=O)C3CC3)cnc3ccc(-c4cc(Cl)c(O)c(Cl)c4)nc23)CC1 [Example 80, Cyclopropyl {6-(3,5-dichloro-4-hydroxyphenyl)-4-[trans-4-(dimethylamino)-cyclohexylamino]-1,5-naphthyridin-3-yl}methanone dihydrochloride]	0.0006 µM	0.0052 µM	0.0076 µM	0.002 µM	0.0041 µM	0.084 µM					
CC(=O)c1cnc2ccc(-c3cc(F)c(O)c(Cl)c3)nc2c1N1CCC(CCN2CCCC2)CC1 [Example 37, 1-[6-(3-Chloro-5-fluoro-4-hydroxyphenyl)-4-{4-[2-(pyrrolidin-1-yl)ethyl]piperidin-1-yl}-1,5-naphthyridin-3-yl]ethanone dihydrochloride]	0.01 µM	0.49 µM	1.2 µM	0.42 µM	0.25 µM	7.2 µM					
CC(=O)c1cnc2ccc(-c3ccc(C#N)nc3)nc2c1N[C@H]1CC[C@H](CN(C)C)CC1 [Example 87, 5-(7-Acetyl-8-{trans-4-[(dimethylamino)methyl]cyclohexylamino}-1,5-naphthyridin-2-yl)picolinonitrile dihydrochloride]	0.0045 µM	0.66 µM	1.8 µM	0.74 µM	0.66 µM	2 µM					
CC(=O)c1cnc2ccc(-c3cc(F)c(O)c(Cl)c3)nc2c1Nc1ccc(N2CCC(N(C)C)C2)nc1 (stereo not drawn) [Example 52, 1-[6-(3-Chloro-5-fluoro-4-hydroxyphenyl)-4-{6-[3-(dimethylamino)pyrrolidin-1-yl]pyridin-3-ylamino}-1,5-naphthyridin-3-yl]ethanone trihydrochloride]	0.027 µM	0.44 µM	0.39 µM	0.4 µM	0.18 µM	2 µM					
CC(=O)c1cnc2ccc(-c3cc(F)c(O)c(Cl)c3)nc2c1N[C@H]1CC[C@H](NC(=O)C(C)N)CC1 (stereo partly drawn) [Example 74, N-{4-[3-Acetyl-6-(3-chloro-5-fluoro-4-hydroxyphenyl)-1,5-naphthyridin-trans-4-ylamino]-cyclohexyl}-2-aminopropanamide dihydrochloride]	0.0026 µM	0.025 µM	0.13 µM	0.0036 µM	0.0043 µM	100 µM					
CN(C)C[C@H]1CC[C@H](Nc2c(C(=O)C3CCC3)cnc3ccc(-c4cc(F)c(O)c(Cl)c4)nc23)CC1 [Example 212, (6-(3-chloro-5-fluoro-4-hydroxyphenyl)-4-((4-((dimethylamino)methyl)cyclohexyl)amino)-1,5-naphthyridin-3-yl)(cyclobutyl)methanone dihydrochloride]	0.0016 µM	0.013 µM	0.014 µM	0.003 µM	0.0074 µM	0.014 µM					
N[C@H]1CCCN(c2ccc(Nc3c(C(=O)C4CCC4)cnc4ccc(-c5cc(F)c(O)c(Cl)c5)nc34)cn2)C1 [Example 210, (S)-(4-((6-(3-aminopiperidin-1-yl)pyridin-3-yl)amino)-6-(3-chloro-5-fluoro-4-hydroxyphenyl)-1,5-naphthyridin-3-yl)(cyclobutyl)methanone dihydrochloride]	0.0014 µM	0.017 µM	0.042 µM	0.022 µM	0.0093 µM	1.4 µM					
CC(=O)c1cnc2ccc(-c3cc(F)c(O)c(Cl)c3)nc2c1N[C@H]1CC[C@@H](CN(C)C)CC1 [Example 93, 1-{6-(3-Chloro-5-fluoro-4-hydroxyphenyl)-4-({cis-4-[(dimethylamino)methyl]cyclohexyl}-amino)-1,5-naphthyridin-3-yl}ethanone dihydrochloride]	0.0011 µM	0.032 µM	0.039 µM	0.011 µM	0.02 µM	0.19 µM					
CC(=O)c1cnc2ccc(-c3cc(F)c(O)c(Cl)c3)nc2c1Nc1ccc(N2CCCC(N)C2)nc1 (stereo not drawn) [Example 65, 1-(4-{[6-(3-Aminopiperidin-1-yl)pyridin-3-yl]amino}-6-(3-chloro-5-fluoro-4-hydroxyphenyl)-1,5-naphthyridin-3-yl)ethanone trihydrochloride]	0.0031 µM	0.013 µM	0.021 µM	0.015 µM	0.0047 µM	0.74 µM					
CCC(=O)c1cnc2ccc(-c3cc(Cl)c(O)c(Cl)c3)nc2c1Nc1ccc(N2CCC[C@H](N)C2)nc1 [Example 207, (S)-1-(4-{[6-(3-aminopiperidin-1-yl)pyridin-3-yl]amino}-6-(3,5-dichloro-4-hydroxyphenyl)-1,5-naphthyridin-3-yl)propan-1-one trihydrochloride]	0.0016 µM	0.034 µM	0.098 µM	0.024 µM	0.018 µM	3.9 µM					
CC(=O)c1cnc2ccc(-c3cc(F)c(O)c(Cl)c3)nc2c1Nc1ccc(CN2CCN(C)CC2)cc1 [Example 35, 1-[6-(3-Chloro-5-fluoro-4-hydroxyphenyl)-4-{4-[(4-methylpiperazin-1-yl)methyl]phenylamino}-1,5-naphthyridin-3-yl]ethanone trihydrochloride]	0.037 µM	0.65 µM	0.41 µM	0.31 µM	0.22 µM	3.8 µM					
CN(C)Cc1ccc(Nc2c(S(C)(=O)=O)cnc3ccc(-c4cc(F)c(O)c(Cl)c4)nc23)cc1 [Example 17, 2-Chloro-4-(8-{4-[(dimethylamino)methyl]phenylamino}-7-(methylsulfonyl)-1,5-naphthyridin-2-yl)-6-fluorophenol dihydrochloride]	0.0081 µM	0.33 µM	0.83 µM	0.064 µM	0.13 µM	6.6 µM					
CC(=O)c1cnc2ccc(-c3cc(Cl)c(O)c(Cl)c3)nc2c1Nc1cnc(N2CCC(N)C2)nc1 (stereo not drawn) [Example 41, 1-{4-[2-(3-Aminopyrrolidin-1-yl)pyrimidin-5-ylamino]-6-(3,5-dichloro-4-hydroxyphenyl)-1,5-naphthyridin-3-yl}ethanone trihydrochloride]	0.0017 µM	0.052 µM	0.27 µM	0.026 µM	0.027 µM	100 µM					
CC(=O)c1cnc2ccc(-c3cnc(C#N)nc3)nc2c1N[C@H]1CC[C@H](CN(C)C)CC1 [Example 57, 5-(7-Acetyl-8-{trans-4-[(dimethylamino)methyl]cyclohexylamino}-1,5-naphthyridin-2-yl)pyrimidine-2-carbonitrile]	0.0012 µM	0.24 µM	0.56 µM	0.22 µM	0.089 µM	0.38 µM					
1-[6-(3-Chloro-5-fluoro-4-hydroxyphenyl)-4-(trans-4-hydroxycyclohexylamino)-1,5-naphthyridin-3-yl]ethanone hydrochloride [Example 92]	0.012 µM						0.061 µM	0.053 µM	0.018 µM	0.036 µM	0.53 µM
CC(=O)c1cnc2ccc(-c3cc(F)c(O)c(Cl)c3)nc2c1Nc1ccc(OCCN(C)C)nc1 [Example 22, 1-[6-(3-Chloro-5-fluoro-4-hydroxyphenyl)-4-{6-[2-(dimethylamino)ethoxy]pyridin-3-ylamino}-1,5-naphthyridin-3-yl)ethanone dihydrochloride]	0.015 µM	0.35 µM	0.29 µM	0.31 µM	0.1 µM	3.5 µM					
